Several values for one entry are separate records, joined by “and”; a condition that tells them apart may be missing. Equal values may be shown once.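 Where inhibition never reached the appropriate level, the endpoint shown equals the highest concentration tested. Otherwise, values were interpolated linearly from a five-concentration, 48-hour dose response in 96-well plates. At the GI50, growth is halved. Definition used: TGI = concentration required for complete inhibition of growth.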
Experiments:
Assay in all cases: growth of human tumour cells (NCI), 48 h
[1] = tested on: SW-620 colon
[2] = tested on: OVCAR-8 ovarian
[3] = tested on: SNB-19 CNS
[4] = tested on: SK-MEL-28 melanoma
[5] = tested on: OVCAR-4 ovarian
[6] = tested on: PC-3 prostate
[7] = tested on: SF-295 CNS
[8] = tested on: SN12C renal
[9] = tested on: MDA-MB-435
[10] = tested on: M14 melanoma

Compound	GI50 [1] [nM]	TGI [1]	GI50 [2] [nM]	TGI [2] [µM]	GI50 [3] [µM]	TGI [3] [µM]	GI50 [4] [µM]	TGI [4] [µM]	GI50 [5] [µM]	TGI [5] [µM]	GI50 [6] [nM]	TGI [6] [µM]	GI50 [7] [µM]	TGI [7] [µM]	GI50 [8] [nM]	TGI [8] [µM]	GI50 [9] [nM]	TGI [9] [µM]	GI50 [10] [nM]	TGI [10]
Cc1cc(C)c2c(n1)sc1c(Nc3ccc(Cl)cc3)ncnc12	< 10	> 100 µM	< 10	> 100	< 0.01	> 100	4.4	> 100	> 100	> 100	199	> 100	0.0209	> 100	31.2	> 100	< 10	> 100	< 10	–
CCCCC#CC1=C(Br)C(=O)OC1	23.7	0.21 µM	1750	10.2	12.9	37.1	3.48	16.4	3.99	11.3	1280	9.43	6.2	28.2	1580	4.27	2170	5.54	1260	3.71 µM
CCN1CCN(C(=O)[C@@]2(C)CC[C@]3(C)CC[C@]4(C)C(=CC(=O)[C@@H]5[C@@]6(C)CC[C@H](OC7C[C@@H](O)[C@@H](O)C(C)O7)C(C)(C)[C@@H]6CC[C@]54C)[C@@H]3C2)CC1 (stereo partly drawn)	1700	6.36 µM	1620	6.82	2.26	8.57	1.06	2.25	1.27	3.08	2470	9.02	0.934	1.83	896	1.83	2260	8.19	1040	2.19 µM
O=C(O)c1nnsc1-c1ccc(-c2snnc2C(=O)O)cc1	–	> 100 µM	–	> 100	–	> 100	–	> 100	–	> 100	–	> 100	–	> 100	–	> 100	–	> 100	–	> 100 µM
COc1ccccc1/C=N\N/C(N)=N\N=C\c1ccccc1OC	376	18.9 µM	301	17.5	0.376	27.7	2.64	28.4	1.05	> 100	476	> 66.2	< 0.0478	0.163	1700	> 46.8	23.5	0.0824	266	3.13 µM
CCOC(=O)C(C#N)C1=CC(=O)C(=O)c2ccc(OC)cc21 (stereo not drawn)	–	33.3 µM	–	54.4	–	54.8	–	41.4	–	33.7	–	77	–	58.3	–	33.8	–	35.4	–	29.8 µM
COc1ccc(Sc2[nH]c(C(C)=O)c3ccccc23)cc1	12500	26.8 µM	16400	36.8	11.6	31.2	13.5	26.3	13.3	32	11100	28.4	11.6	26.7	11000	24.7	2760	13	11700	25.1 µM
C[N+](C)(C)CC1CCCc2ccccc2C1=O (stereo not drawn)	–	3.67 µM and 3.92 µM	6140	12.4	–	85.6	–	34.5	15.7	41.2	–	30.8	–	> 55	18900	38.5	–	11	7850	9.49 µM and 19.7 µM
CC1(C)CC(=O)C(C=NC(=S)c2ccccc2)=C(O)C1	–	> 100 µM	–	> 100	–	> 100	–	> 100	–	> 100	–	> 100	–	> 100	–	> 100	–	> 100	–	> 100 µM
CCOC(=O)c1ccc(NC(=O)Oc2ccc3c(C)cc(=O)oc3c2)cc1	–	> 100 µM	–	> 100	–	> 100	–	> 100	–	> 100	–	> 100	–	> 100	–	> 100	–	> 100	–	> 100 µM
CC(=O)N(C(C)=O)c1ncc(-n2nc(-c3ccccc3)cc2-c2ccccc2)c(-c2ccccc2)n1	–	> 10 µM	–	> 10	–	> 10	–	> 10	–	> 10	–	> 10	–	> 10	–	> 10	–	> 10	–	> 10 µM
CC(=O)OC1COC(Oc2c(C)c3c4c(c2O)[C@@H](C)CC[C@@H]4[C@@H](C)C[C@H]3C=C(C)C)C(O)C1OC(C)=O (stereo partly drawn)	36400	> 100 µM	16000	32.9	16	40.1	25.4	56.2	21.6	49.3	11300	25.2	17.1	33.2	12400	25.8	10800	23.8	13700	27.8 µM
Cc1cc(Cl)cc(OCCn2cc(F)cn2)c1-c1nc(N)nc2c1CN(C(=O)NCC(C)(F)F)C2	43	> 100 µM	77.6	> 100	0.477	> 100	0.0709	> 100	> 100	> 100	92.4	> 100	0.131	> 93.9	74.5	> 100	57.8	> 100	84.8	> 100 µM
COc1ccc(/C=C\[N+](=O)[O-])cc1OC	1900	4.9 µM	2840	11.1	9.75	25.1	3.53	13	14	27.5	3010	8.85	12.2	33.9	3060	13.2	2460	9.38	1820	4.18 µM
CC(=O)CCn1c(=S)sc2ccccc21	–	> 100 µM	–	> 100	–	> 100	–	> 100	–	> 100	–	> 100	–	> 100	–	> 100	–	> 100	–	> 100 µM
CCOC(=O)C1=CN(C)C=C(C(=O)OCC)C1c1cc(Br)c(OCC)c(OC)c1	67200	> 100 µM	> 100000	> 100	> 100	> 100	> 100	> 100	12.5	> 100	8290	> 100	41.1	> 100	> 100000	> 100	> 100000	> 100	> 100000	> 100 µM
COc1ccc(OC)c2c1[nH]c(=O)c1c3ccccc3cn21	590	2.11 µM	1260	3.36	1.64	3.4	1.92	3.38	1.38	3.1	1390	4.21	1.25	2.7	1230	2.58	1620	3.13	1790	3.37 µM
C/C=C(\C)C(=O)O[C@H]1C=CC(=O)O[C@H]1CCC(=O)[C@H](C)O	4900	16.2 µM	20700	52.8	25.7	83.5	9.9	24.6	11.9	25.4	15800	32	23.6	50.8	18500	46.9	11800	27.3	14600	32.8 µM

From PubChem BioAssay (NCI)
